{
  "source": "patent US7297523B2",
  "about": "“Human elongase genes and uses thereof” (Xenon Pharmaceuticals Inc., priority 2000, dated 2007)",
  "molecules": {"B1": {"name": "ELG2: human PUFA elongase expressed in yeast from plasmid pTh1014.1 (protein, UniProt Q9NYP7 1-299, looked up)", "Very long chain fatty acid …": "MEHFDASLSTYFKALLGPRDTRVKGWFLLDNYIPTFICSVIYLLIVWLGPKYMRNKQPFSCRGILVVYNLGLTLLSLYMFCELVTGVWEGKYNFFCQGTRTAGESDMKIIRVLWWYYFSKLIEFMDTFFFILRKNNHQITVLHVYHHASMLNIWWFVMNWVPCGHSYFGATLNSFIHVLMYSYYGLSSVPSMRPYLWWKKYITQGQLLQFVLTIIQTSCGVIWPCTFPLGWLYFQIGYMISLIALFTNFYIQTYNKKGASRRKDHLKDHQNGSMAAVNGHTNSFSPLENNVKPRKLRKD"}},
  "key": {"D6D": {"tested_on": "D6D", "assay": "D6D activity in liver microsomes from STZ-induced diabetic rats", "assay_type": "in vivo, rat", "conditions": "compared to control", "protocol": "(§1) The desaturase and elongase enzyme activities in liver microsomes from streptozotocin (STZ)-induced diabetic rats was assayed at 2 and 7 weeks post-induction. Table 1 indicates the decrease in activities compared to a control, observed during the course of the experiment. An equivalent decrease in elongation activity in STZ-induced diabetic rats has been previously reported (Suneja et al., 1990, Biochim. Biophys. Acta, 1042: 81-85)."}, "Elongase": {"tested_on": "Elongase", "assay": "Elongase activity in liver microsomes from STZ-induced diabetic rats", "assay_type": "in vivo, rat", "conditions": "compared to control", "protocol": "as §1"}, "D5D": {"tested_on": "D5D", "assay": "D5D activity in liver microsomes from STZ-induced diabetic rats", "assay_type": "in vivo, rat", "conditions": "compared to control", "protocol": "as §1"}, "Leukocytes [1]": {"tested_on": "Leukocytes", "assay": "Conversion of 18:3n-6 into 20:3n-6 in leukocytes from STZ-induced diabetic rats", "assay_type": "in vivo, rat"}, "Leukocytes [2]": {"tested_on": "Leukocytes", "assay": "Conversion of 18:2n-6 into 20:2n-6 in leukocytes from STZ-induced diabetic rats", "assay_type": "in vivo, rat", "conditions": "for Conversion of 18:2n-6 into 20:2n-6: leukocytes incubated for 24 h, mean ± S.D. of 6 rats"}, "18:3n-6": {"tested_on": "18:3n-6", "assay": "Elongation of [1-14C]18:3n-6 in yeast expressing human elongases (RP-HPLC)", "conditions": "for Percent Elongation of 18:3n-6 to 20:3: product 20:3n-6; for Percent Elongation of 18:3n-6 to 22:3: product 22:3n-6", "text": "(§2) For the expression of ELG1, ELG2, ELG3, ELG4, ELG5, ELG6 or ELG7 the yeast were transformed with pTh1009.1, pTh1014.1, pTh1015.1, pTh1021.1, pTh1018.1, pTh1041.1 or pTh1044.1, respectively. For the expression of ELG1/V5-His, ELG2/V5-His, ELG3/V5-His, ELG4/V5-His, ELG5/V5-His, ELG6/V5 -His or ELG7/V5-His the yeast were transformed with pTh1009.2, pTh1014.2, pTh1017.1, pTh1021.2, pTh1019.1, pTh1042.1 or pTh1045.1, respectively. Recombinant yeast cells were selected on SC-U medium.\n(§3) Transformed yeast (approximately 3.2×10^6 cells/ml; O.D.600 0.4) were incubated in a 125 ml Erlenmeyer containing 10 ml of SC-U medium with 1% raffinose, 1% tergitol and 25 μM of the lithium salts of either [1-^14C]18:3n-3 (1 μCi), [1-^14C]18:3n-6 (1 μCi), [1-^14C]20:4n-6 (2 μCi), or [1-^14C]20:5n-3 (2 μCi). After 4 h incubation in an orbital incubator at 270 rpm and 30° C., cells reached the log phase and the transgene, expression was induced with galactose 30° C., cells reached the log phase and the transgene expression was induced with galactose (2% final concentration). The yeast were incubated for an additional 19 h and then harvested by centrifugation at 5000×g for 10 minutes at 4° C.\n(§4) Cells were washed with Tris-HCl buffer (100 mM, pH 8.0) containing 0.1% BSA and total lipids were extracted as described below. The radioactivity from aliquots of the incubation medium, supernatant and cells was determined by liquid scintillation counting using a LS6500-Scintillation System (Beckman).\n(§5) Alternatively, cells were resuspended in 1.5 ml of water and saponified with 2 ml of 10% KOH in ethanol. The total lipid extracts or the free fatty acids from the saponified samples were methylated using boron trifluoride in methanol at 90° C. for 30 min. The resultant methyl esters (FAME) were analyzed as described below.\n(§6) Analyses of radiolabelled FAME were carried out on a Hewlett Packard 1090, series II chromatograph equipped with a diode array detector set at 205 nm, a radioisotope detector (model 171, Beckman, CA) with a solid scintillation cartridge (97% efficiency for ^14C-detection) and a reverse phase ODS (C-18) Beckman column (250 mm×4.6 mm i.d.; 5 μm particle size) attached to a pre-column with a μBondapak C-18 (Beckman) insert. FAME were separated isocratically with acetonitrile/water (95.5 v/v) at a flow rate of 1 ml/min and were identified by comparison with authentic standards. Alternatively, the eluted FAME were collected and the solvent evaporated. FAME were re-dissolved in hexane for further analysis by gas chromatography."}, "20:4n-6": {"tested_on": "20:4n-6", "assay": "Elongation of [1-14C]20:4n-6 in yeast expressing human elongases (RP-HPLC)", "conditions": "untagged elongase, 25 μM substrate", "text": "as §2, §3, §4, §5, §6"}, "18:3n-3": {"tested_on": "18:3n-3", "assay": "Elongation of [1-14C]18:3n-3 in yeast expressing human elongases (RP-HPLC)", "conditions": "untagged elongase; 25 μM substrate; product 20:3n-3", "text": "as §2, §3, §4, §5, §6"}, "20:5n-3": {"tested_on": "20:5n-3", "assay": "Elongation of [1-14C]20:5n-3 in yeast expressing human elongases (RP-HPLC)", "conditions": "untagged elongase; 25 μM substrate; product 22:5n-3", "text": "as §2, §3, §4\nAlternatively, cells were resuspended in 1.5 ml of water and saponified with 2 ml of 10% KOH in ethanol. The total lipid extracts or the free fatty acids from the saponified samples were methylated using boron trifluoride in methanol at 90° C. for 30 min. The resultant methyl esters (FAME) were analyzed as described below. […]"}, "[3]": {"conditions": "untagged elongase, 25 μM substrate"}},
  "data": [
    {"molecule": "CN(N=O)C(=O)N[C@H]1C(O)O[C@H](CO)[C@@H](O)[C@@H]1O", "note": "(stereo partly drawn) [STZ, 2-desoxy-2-methylnitrosoamino carbonyl amino-D-glucopyranose]", "values": [
      {"measurement": "% Decrease of D6D activity (18:2n-6 → 18:3n-6)", "setting": "D6D; 2 weeks post-induction", "value": 28, "unit": "%"},
      {"measurement": "% Decrease of D6D activity (18:2n-6 → 18:3n-6)", "setting": "D6D; 7 weeks post-induction", "value": 33, "unit": "%"},
      {"measurement": "% Decrease of Elongase activity (18:3n-6 → 20:3n-6)", "setting": "Elongase; 2 weeks post-induction", "value": 46, "unit": "%"},
      {"measurement": "% Decrease of Elongase activity (18:3n-6 → 20:3n-6)", "setting": "Elongase; 7 weeks post-induction", "value": 43, "unit": "%"},
      {"measurement": "% Decrease of D5D activity (20:3n-6 → 20:4n-6)", "setting": "D5D; 2 weeks post-induction", "value": 33, "unit": "%"},
      {"measurement": "% Decrease of D5D activity (20:3n-6 → 20:4n-6)", "setting": "D5D; 7 weeks post-induction", "value": 41, "unit": "%"},
      {"measurement": "Conversion of 18:3n-6 into 20:3n-6", "setting": "Leukocytes [1]; 2 weeks post-induction, incubation time 0 h", "value": "0 pmol of 20:3n-6 produced/mg cellular protein"},
      {"measurement": "Conversion of 18:3n-6 into 20:3n-6", "setting": "Leukocytes [1]; 2 weeks post-induction, incubation time 0.16 h, mean ± S.D. of 6 rats", "value": "50 ± 8 pmol of 20:3n-6 produced/mg cellular protein"},
      {"measurement": "Conversion of 18:3n-6 into 20:3n-6", "setting": "Leukocytes [1]; 2 weeks post-induction, incubation time 0.5 h, mean ± S.D. of 6 rats", "value": "115 ± 26 pmol of 20:3n-6 produced/mg cellular protein"},
      {"measurement": "Conversion of 18:3n-6 into 20:3n-6", "setting": "Leukocytes [1]; 2 weeks post-induction, incubation time 1 h, mean ± S.D. of 6 rats", "value": "288 ± 23 pmol of 20:3n-6 produced/mg cellular protein"},
      {"measurement": "Conversion of 18:3n-6 into 20:3n-6", "setting": "Leukocytes [1]; 7 weeks post-induction, incubation time 0 h", "value": "0 pmol of 20:3n-6 produced/mg cellular protein"},
      {"measurement": "Conversion of 18:3n-6 into 20:3n-6", "setting": "Leukocytes [1]; 7 weeks post-induction, incubation time 0.16 h, mean ± S.D. of 6 rats", "value": "37 ± 9 pmol of 20:3n-6 produced/mg cellular protein"},
      {"measurement": "Conversion of 18:3n-6 into 20:3n-6", "setting": "Leukocytes [1]; 7 weeks post-induction, incubation time 0.5 h, mean ± S.D. of 6 rats", "value": "112 ± 10 pmol of 20:3n-6 produced/mg cellular protein"},
      {"measurement": "Conversion of 18:3n-6 into 20:3n-6", "setting": "Leukocytes [1]; 7 weeks post-induction, incubation time 1 h, mean ± S.D. of 6 rats", "value": "190 ± 92 pmol of 20:3n-6 produced/mg cellular protein"},
      {"measurement": "Conversion of 18:3n-6 into 20:3n-6", "setting": "Leukocytes [1]; 7 weeks post-induction, incubation time 24 h, mean ± S.D. of 6 rats", "value": "1008 ± 98 pmol of 20:3n-6 produced/mg cellular protein"},
      {"measurement": "activity of the elongation system (18:3n-6 into 20:3n-6)", "setting": "Leukocytes [1]; STZ group versus control, regardless of the time after the last I.P. STZ injection", "value": "significant increase"},
      {"measurement": "Conversion of 18:2n-6 into 20:2n-6", "setting": "Leukocytes [2]; 2 weeks post-induction", "value": "322 ± 119 pmol of 20:2n-6 produced/mg cellular protein"},
      {"measurement": "Conversion of 18:2n-6 into 20:2n-6", "setting": "Leukocytes [2]; 7 weeks post-induction", "value": "147 ± 22 pmol of 20:2n-6 produced/mg cellular protein"},
      {"measurement": "changes in the elongation of 18:2n-6 to 20:2n-6", "setting": "Leukocytes [2]; leukocytes from animals sacrificed 7 weeks after the STZ treatment", "value": "no significant changes"},
      {"measurement": "reduction in the elongation of 18:2n-6 to 20:2n-6", "setting": "Leukocytes [2]; leukocytes obtained 2 weeks after the STZ injection", "value": "approximately 50%"}
    ]},
    {"molecule": "B1", "values": [
      {"measurement": "Percent Elongation of 18:3n-6 to 20:3", "setting": "18:3n-6; V5-His tagged elongase", "value": 73, "unit": "%"},
      {"measurement": "Percent Elongation of 18:3n-6 to 22:3", "setting": "18:3n-6; V5-His tagged elongase", "value": 11, "unit": "%"},
      {"measurement": "Percent Elongation of 18:3n-6 to 20:3", "setting": "18:3n-6; [3]", "value": 62, "unit": "%"},
      {"measurement": "Percent Elongation of 18:3n-6 to 22:3", "setting": "18:3n-6; [3]", "value": 3, "unit": "%"},
      {"measurement": "Percent Elongation of 20:4n-6 to 22:4", "setting": "20:4n-6; product 22:4n-6", "value": 39, "unit": "%"},
      {"measurement": "Percent Elongation of 20:4n-6 to 24:4", "setting": "20:4n-6; product 24:4n-6", "value": 1, "unit": "%"},
      {"measurement": "Percent Elongation of 18:3n-3 to 20:3", "setting": "18:3n-3", "value": 16, "unit": "%"},
      {"measurement": "Percent Elongation of 20:5n-3 to 22:5", "setting": "20:5n-3", "value": 59, "unit": "%"}
    ]}
  ]
}
